Assay [1] deals with T1, human Alpha-1a Adrenergic receptor (Homo sapiens, UniProt P35348).
T1 construct: expressed in transfected cells
T1 sequence (P35348 1-466): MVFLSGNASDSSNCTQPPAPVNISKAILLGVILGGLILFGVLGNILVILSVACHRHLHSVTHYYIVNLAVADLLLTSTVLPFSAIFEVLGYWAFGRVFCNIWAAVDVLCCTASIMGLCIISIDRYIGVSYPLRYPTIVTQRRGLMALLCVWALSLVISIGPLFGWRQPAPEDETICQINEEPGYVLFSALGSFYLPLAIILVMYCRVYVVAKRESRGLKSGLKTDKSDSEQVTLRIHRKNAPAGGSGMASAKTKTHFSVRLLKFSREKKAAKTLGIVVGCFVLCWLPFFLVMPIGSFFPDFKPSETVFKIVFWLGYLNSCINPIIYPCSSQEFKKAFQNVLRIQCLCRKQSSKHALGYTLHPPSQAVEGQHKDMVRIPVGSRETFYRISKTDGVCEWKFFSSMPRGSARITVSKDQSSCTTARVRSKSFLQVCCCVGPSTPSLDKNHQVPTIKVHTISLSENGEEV
Nature of the assay: Binding affinity at the human alpha-1A adrenergic receptor. The following applies: Table 3c; read-out: hAlpha-1a Ki. From the text: (§1) Other receptors: Cell membranes expressing human dopamine D1, D2, D4 and rat D3 receptors were purchased through BioSignal, Inc. (Montreal, Canada). Binding assays using the histamine H1 receptor; dopamine receptors; and α1A, α1B, and α2 adrenergic receptors may be carried out according to the procedures described in U.S. Pat. No. 5,780,485, the disclosure of which is hereby incorporated by reference in its entirety into this application. Binding assays using the dopamine D5 receptor may be carried out according to the procedures described in U.S. Pat. No. 5,882,855, the disclosure of which is hereby incorporated by reference in its entirety into this application. Binding assays for the human α1D adrenergic receptor may be carried out according to the procedures described in U.S. Pat. No. 6,156,518, the disclosure of which is hereby incorporated by reference in its entirety into this application.

The target in assay [2] is T2, human Histamine H1 receptor (Homo sapiens, UniProt P35367).
T2 construct: expressed in transfected cells
T2 sequence (P35367 whole entry): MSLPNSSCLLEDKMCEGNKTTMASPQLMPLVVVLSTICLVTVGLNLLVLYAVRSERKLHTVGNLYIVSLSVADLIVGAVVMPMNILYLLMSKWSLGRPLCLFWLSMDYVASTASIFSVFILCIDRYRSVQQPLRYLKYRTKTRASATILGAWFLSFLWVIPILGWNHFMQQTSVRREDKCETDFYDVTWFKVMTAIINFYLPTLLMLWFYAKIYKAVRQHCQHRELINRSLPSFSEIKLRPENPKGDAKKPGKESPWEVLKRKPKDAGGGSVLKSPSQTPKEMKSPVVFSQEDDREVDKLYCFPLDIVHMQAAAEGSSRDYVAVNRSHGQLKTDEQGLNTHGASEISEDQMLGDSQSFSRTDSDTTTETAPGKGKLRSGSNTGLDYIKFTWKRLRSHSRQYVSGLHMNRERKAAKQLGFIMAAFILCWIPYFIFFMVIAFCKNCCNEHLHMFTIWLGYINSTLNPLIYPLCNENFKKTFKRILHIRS
Nature of the assay: Binding affinity at the human histamine H1 receptor. The following applies: Table 3c; read-out: hH1 Ki.
Text: as §1

Assay [3] addresses T3, human Dopamine D2 receptor (Homo sapiens, UniProt P14416).
T3 construct: purchased BioSignal, Inc. (Montreal, Canada)
Nature of the assay: Binding affinity at the human dopamine D2 receptor. The following applies: Table 3c; read-out: hD2 Ki.
Text: as §1

For another assay, the target named is T4, rat MCH1 receptor (Rattus norvegicus, UniProt P97639).
T4 construct: expressed in transfected cells
T4 sequence (P97639 whole entry): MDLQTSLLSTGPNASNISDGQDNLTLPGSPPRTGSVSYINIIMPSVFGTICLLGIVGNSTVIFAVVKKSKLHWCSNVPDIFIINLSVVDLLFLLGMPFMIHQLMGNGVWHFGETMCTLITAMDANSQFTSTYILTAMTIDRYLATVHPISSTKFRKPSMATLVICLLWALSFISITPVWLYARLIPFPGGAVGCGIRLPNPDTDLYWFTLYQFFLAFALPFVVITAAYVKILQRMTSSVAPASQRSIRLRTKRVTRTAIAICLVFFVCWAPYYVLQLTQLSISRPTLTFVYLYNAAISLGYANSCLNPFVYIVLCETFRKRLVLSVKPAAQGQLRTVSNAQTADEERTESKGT
The experiment in a line: Binding affinity (Ki) at the rat MCH1 receptor. The method, then:
For binding assays, pellets of transfected cells are suspended in ice-cold buffer (20 mM Tris.HCl, 5 mM EDTA, pH 7.4) and homogenized by sonication for 7 sec. The cell lysates are centrifuged at 200×g for 5 min at 4° C. The supernatants are then centrifuged at 40,000×g for 20 min at 4° C. The resulting pellets are washed once in the homogenization buffer and suspended in binding buffer (see methods for radioligand binding). Protein concentrations are determined by the method of Bradford (1976) using bovine serum albumin as the standard. Binding assays are usually performed immediately, however it is possible to prepare membranes in batch and store frozen in liquid nitrogen for future use.
Binding is performed at 25° C. for 1 hr. Incubations are terminated by rapid vacuum filtration over GF/C glass fiber filters, presoaked in 5% PEI using 50 mM Tris pH 7.4 containing 0.01% triton X-100 as wash buffer.
A methanolic solution of methyl (4S)-3-({[3-(4-[3-(acetylamino)phenyl]-3,6-dihydro-1(2H)pyridinyl)propyl]amino}carbonyl)-4-(3,4-difluorophenyl)-6-(methoxymethyl)-2-oxo-1,2,3,4-tetrahydro-5-pyrimidinecarboxylate was exposed to tritium gas at 1 atmosphere pressure in the presence of 5% palladium on carbon with stirring overnight to give the tritiated methyl (4S)-3-{[(3-{4-[3-(acetylamino)phenyl]-1-piperidinyl}propyl)amino]carbonyl}-4-(3,4-difluorophenyl)-6-(methoxymethyl)-2-oxo-1,2,3,4-tetrahydro-5-pyrimidinecarboxylate ((+)-isomer) After purification by reverse phase HPLC (Hypersil ODS, 4.6×100 mm, methanol:H2O:Et3N 10:90:1 to 100:0:1 in 15 min at 1.0 mL/min, with radiochemical and UV detection), this product was used as a radioligand in the MCH1 binding assays. The same procedure was carried out with H2 gas in place of ^3H2 to afford the non-radioactive version of Compound 10.

The mark [4] stands for this setting: Examples 38-141, read-out: Ki (nM) rMCH1.

Molecules are shown by their SMILES. Read-outs that look alike come from different tables or passages of the source.

T3 sequence (P14416 whole entry): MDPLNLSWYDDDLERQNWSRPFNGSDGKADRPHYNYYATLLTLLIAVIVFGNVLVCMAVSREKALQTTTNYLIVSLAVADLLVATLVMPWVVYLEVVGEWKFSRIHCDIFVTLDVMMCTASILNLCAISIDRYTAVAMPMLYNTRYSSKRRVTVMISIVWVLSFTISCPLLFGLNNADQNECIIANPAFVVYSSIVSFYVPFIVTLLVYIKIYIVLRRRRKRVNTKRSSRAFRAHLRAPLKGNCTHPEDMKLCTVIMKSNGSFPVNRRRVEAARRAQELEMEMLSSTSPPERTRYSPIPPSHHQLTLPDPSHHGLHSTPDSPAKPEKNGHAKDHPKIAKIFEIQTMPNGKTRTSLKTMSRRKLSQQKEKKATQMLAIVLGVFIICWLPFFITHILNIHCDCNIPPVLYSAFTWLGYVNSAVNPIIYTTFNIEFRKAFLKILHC

`COCC1=C(C(=O)OC)[C@H](c2ccc(F)c(F)c2)N(C(=O)NCCCN2CCC(c3cccc(N)c3)CC2)C(=O)N1` [Example 38, METHYL (4S)-3-[({3-[4-(3-AMINOPHENYL)-1-PIPERIDINYL]PROPYL}AMINO)CARBONYL]-4-(3,4-DIFLUOROPHENYL)-6-(METHOXYMETHYL)-2-OXO-1,2,3,4-TETRAHYDRO-5-PYRIMIDINECARBOXYLATE]: the Ki in assay [1] was determined as 23.8 nM; in assay [2], 379 nM; in assay [3], 2370 nM; at rat MCH1 receptor (setting [4]), 1.34 nM; at rat MCH1 receptor (Table 3c, read-out: rMCH1 Ki) it was 1.34 nM.

As for `COCC(=O)Nc1cccc(C2CCN(CCCNC(=O)N3C(=O)NC(COC)=C(C(=O)OC)[C@@H]3c3ccc(F)c(F)c3)CC2)c1` [Example 39, METHYL (4S)-4-(3,4-DIFLUOROPHENYL)-3-({[3-(4-{3-[(METHOXYACETYL)AMINO]PHENYL}-1-PIPERIDINYL)PROPYL]AMINO}CARBONYL)-6-(METHOXYMETHYL)-2-OXO-1,2,3,4-TETRAHYDRO-5-PYRIMIDINECARBOXYLATE], the Ki is 25.5 nM in assay [1]; 5660 nM in assay [2]; 25100 nM in assay [3]; 3.33 nM on rat MCH1 receptor (setting [4]); 3.33 nM at rat MCH1 receptor (Table 3c, read-out: rMCH1 Ki).

As to `COCC1=C(C(=O)OC)[C@H](c2ccc(F)c(F)c2)N(C(=O)NCCCN2CCC(c3cccc(NC(=O)CC(C)(C)C)c3)CC2)C(=O)N1` [Example 40, METHYL (4S)-4-(3,4-DIFLUOROPHENYL)-3-({[3-(4-{3-[(3,3-DIMETHYLBUTANOYL)AMINO]PHENYL}-1-PIPERIDINYL)PROPYL]AMINO}CARBONYL)-6-(METHOXYMETHYL)-2-OXO-1,2,3,4-TETRAHYDRO-5-PYRIMIDINECARBOXYLATE], the Ki came out at 8.72 nM in assay [1]; 7120 nM in assay [2]; 2650 nM in assay [3]; 2.72 nM on rat MCH1 receptor (setting [4]); 2.72 nM on rat MCH1 receptor (Table 3c, read-out: rMCH1 Ki).

For the molecule `CCC(=O)Nc1cccc(C2CCN(CCCNC(=O)N3C(=O)NC(COC)=C(C(=O)OC)[C@@H]3c3ccc(F)c(F)c3)CC2)c1` [Example 41, METHYL (4S)-4-(3,4-DIFLUOROPHENYL)-6-(METHOXYMETHYL)-2-OXO-3-{[(3-{4-[3-(PROPIONYLAMINO)PHENYL]-1-PIPERIDINYL)PROPYL)AMINO]CARBONYL}-1,2,3,4-TETRAHYDRO-5-PYRIMIDINECARBOXYLATE], the inhibitory constant (Ki) in assay [1] came to 14.3 nM; in assay [2], 4540 nM; in assay [3] it was 9610 nM; on rat MCH1 receptor (setting [4]), 0.04 nM; on rat MCH1 receptor (Table 3c, read-out: rMCH1 Ki) it was 0.04 nM.

In the case of `COCC1=C(C(=O)OC)[C@H](c2ccc(F)c(F)c2)N(C(=O)NCCCN2CCC(c3cccc(NC(=O)CC(C)C)c3)CC2)C(=O)N1` [Example 42, METHYL (4S)-4-(3,4-DIFLUOROPHENYL)-6-(METHOXYMETHYL)-3-({[3-(4-{3-[(3-METHYLBUTANOYL)AMINO]PHENYL}-1-PIPERIDINYL)PROPYL]AMINO}CARBONYL)-2-OXO-1,2,3,4-TETRAHYDRO-5-PYRIMIDINECARBOXYLATE], the Ki in assay [1] was determined as 10.9 nM; in assay [2], 7800 nM; in assay [3] it was 3270 nM; at rat MCH1 receptor (setting [4]), 0.6 nM; on rat MCH1 receptor (Table 3c, read-out: rMCH1 Ki), 0.6 nM.

As for `CCCC(=O)Nc1cccc(C2CCN(CCCNC(=O)N3C(=O)NC(COC)=C(C(=O)OC)[C@@H]3c3ccc(F)c(F)c3)CC2)c1` [Example 44, METHYL (4S)-3-{[(3-{4-[3-(BUTYRYLAMINO)PHENYL]-1-PIPERIDINYL}PROPYL)AMINO]CARBONYL}-4-(3,4-DIFLUOROPHENYL)-6-(METHOXYMETHYL)-2-OXO-1,2,3,4-TETRAHYDRO-5-PYRIMIDINECARBOXYLATE], the inhibition constant Ki came to 11.4 nM in assay [1]; 2590 nM in assay [2]; 3610 nM in assay [3]; 0.09 nM on rat MCH1 receptor (setting [4]); 0.09 nM at rat MCH1 receptor (Table 3c, read-out: rMCH1 Ki).

As for `CCCC(=O)Nc1cccc(C2CCN(CCCNC(=O)C3=C(COC)NC(=O)N[C@@H]3c3ccc(F)c(F)c3)CC2)c1` [Example 45], the Ki in assay [1] was 6030 nM; in assay [2], 4430 nM; in assay [3], greater than 50000 nM; at rat MCH1 receptor (setting [4]), 14.7 nM; on rat MCH1 receptor (Table 3c, read-out: rMCH1 Ki), 14.7 nM.

With `CCC(=O)Nc1cccc(C2CCN(CCCNC(=O)C3=C(COC)NC(=O)N[C@@H]3c3ccc(F)c(F)c3)CC2)c1` [Example 46], the Ki is 2420 nM in assay [1]; 2870 nM in assay [2]; greater than 50000 nM in assay [3]; 8.16 nM on rat MCH1 receptor (setting [4]); 8.16 nM at rat MCH1 receptor (Table 3c, read-out: rMCH1 Ki).

Take `COCC1=C(C(=O)NCCCN2CCC(c3cccc(NC(=O)CC(C)C)c3)CC2)[C@@H](c2ccc(F)c(F)c2)NC(=O)N1` [Example 47]: the Ki in assay [1] came to 553 nM; in assay [2], 3250 nM; in assay [3], 13500 nM; at rat MCH1 receptor (setting [4]), 34.3 nM; at rat MCH1 receptor (Table 3c, read-out: rMCH1 Ki), 34.3 nM.

In the case of `CCC(C)C(=O)Nc1cccc(C2CCN(CCCNC(=O)C3=C(COC)NC(=O)N[C@@H]3c3ccc(F)c(F)c3)CC2)c1` (stereo partly shown) [Example 48], the Ki in assay [1] was 16600 nM; in assay [2], 7770 nM; in assay [3], greater than 50000 nM; at rat MCH1 receptor (setting [4]), 22.1 nM; at rat MCH1 receptor (Table 3c, read-out: rMCH1 Ki), 22.1 nM.

On to `COCC1=C(C(=O)NCCCN2CCC(c3cccc(NC(=O)C(C)C)c3)CC2)[C@@H](c2ccc(F)c(F)c2)NC(=O)N1` [Example 50], for which the Ki was 10400 nM in assay [1]; 7470 nM in assay [2]; 19800 nM in assay [3]; 13.7 nM at rat MCH1 receptor (setting [4]); 13.7 nM at rat MCH1 receptor (Table 3c, read-out: rMCH1 Ki).

For the molecule `CC(=O)Nc1cccc(C2CCN(CCCNC(=O)N3C(=O)NC(C)=C(C(C)=O)C3c3cc(F)c(F)c(F)c3)CC2)c1` (stereo not shown) [Example 51], the Ki in assay [1] stood at 10.1 nM; in assay [2], 1230 nM; in assay [3] it was 6640 nM; on rat MCH1 receptor (setting [4]), 0.79 nM; on rat MCH1 receptor (Table 3c, read-out: rMCH1 Ki) it was 0.79 nM.

For `CCC1=C(C(=O)OCc2ccccc2)C(c2ccc(F)cc2F)N(C(=O)NCCCN2CCC(c3cccc(NC(C)=O)c3)CC2)C(=O)N1` (stereo not shown) [Example 52, BENZYL 3-{[(3-{4-[3-(ACETYLAMINO)PHENYL]-1-PIPERIDINYL}PROPYL)AMINO]CARBONYL}-4-(2,4-DIFLUOROPHENYL)-6-ETHYL-2-OXO-1,2,3,4-TETRAHYDRO-5-PYRIMIDINECARBOXYLATE], the Ki in assay [1] came out at 200 nM; in assay [2], 1430 nM; in assay [3], 166 nM; on rat MCH1 receptor (setting [4]), 0.81 nM; on rat MCH1 receptor (Table 3c, read-out: rMCH1 Ki), 0.81 nM.

Turning to `CC(=O)Nc1cccc(C2CCN(CCCNC(=O)N3C(=O)NC4=C(C(=O)OC4)C3c3ccc4c(c3)OCO4)CC2)c1` (stereo not shown) [Example 53], the inhibition constant (Ki) in assay [1] was found to be 2310 nM; in assay [2], 10400 nM; in assay [3], 3450 nM; at rat MCH1 receptor (setting [4]), 50.8 nM; at rat MCH1 receptor (Table 3c, read-out: rMCH1 Ki), 50.8 nM.

Regarding `CC(C)C(=O)Nc1cccc(C2CCN(CCCC(=O)c3ccc(Oc4ccccc4)cc3)CC2)c1` [Example 82], the inhibitory constant (Ki) was found to be 516 nM in assay [1]; 1980 nM in assay [3]; 192 nM at rat MCH1 receptor (setting [4]); 192 nM on rat MCH1 receptor (Table 3c, read-out: rMCH1 Ki).

On to `COc1cccc(CC(=O)Nc2cccc(C3CCN(CCCC(=O)c4ccc(Oc5ccccc5)cc4)CC3)c2)c1` [Example 83], for which the Ki in assay [1] amounted to 130 nM; in assay [3], 503 nM; at rat MCH1 receptor (setting [4]), 91 nM; on rat MCH1 receptor (Table 3c, read-out: rMCH1 Ki) it was 91 nM.

`CC(C)C(=O)Nc1cccc(C2CCN(CC[C@H](Oc3ccc(-c4ccccc4)cc3)c3ccccc3)CC2)c1` [Example 134]: the Ki in assay [1] is 1310 nM; in assay [3], 37.6 nM; on rat MCH1 receptor (setting [4]), 22.2 nM; at rat MCH1 receptor (Table 3c, read-out: rMCH1 Ki) it was 22.2 nM.

Values taken from patent US20040038855A1 (priority 1999, published 2004).
